The values that follow are results of earlier work, collected in PMC4937428, “The Next Generation Non-competitive Active Polyester Nanosystems for Transferrin Receptor-mediated Peroral Transport Utilizing Gambogic Acid as a Ligand” (Scientific Reports, 2016).

On the set-up of this data set: method as in PMID 16918721. To be noted: described in the literature.

Consider `CC(C)=CCC[C@]1(C)C=Cc2c(O)c3c(c(CC=C(C)C)c2O1)O[C@]12C(=C[C@@H]4C[C@H]1C(C)(C)O[C@@]2(C/C=C(/C)C(=O)O)C4=O)C3=O` [GA, gambogic acid], for which the Established safe dose was 60 mg/kg.
